Data set [1] has as its system superoxide dismutase (SOD). As to the kind of experiment: Superoxide dismutase (SOD) activity in fish liver. The class given is in vivo, Carassius auratus. Conditions: SER alone 5 μg·L^−1 compared to control, seven days. As for the experimental part:
A dechlorinated water control treatment and solvent control treatment (0.1% methanol) were also set in the exposure treatments. Each treatment was prepared in six replicate tanks (30 L) with four fish per tank. Fish were not fed during the exposure period. The exposure solutions were refreshed every 24 h. After the exposure experiment, six fish were sampled in each treatment for biochemical assay and chemical analysis. The liver, brain, gills, and muscle were dissected, immediately frozen in liquid nitrogen, and stored at −80 °C until the assays. The remaining 18 fish in each treatment were used for behavioral trials at the end of exposure.
The tissue sample was homogenized in chilled physiological saline solution (1:10, w/v). The homogenates were then centrifuged for 10 min (10,000 g) at 4 °C. The obtained supernatant was used to determine enzyme activity, MDA content, and protein concentration using bioassay kits according to the manufacturer’s protocol. Enzyme activity is reported as unit (U) mg^−1 protein, and MDA content is expressed in nmol mg^−1 protein.

The test system of data set [2] is CY2D6 enzyme. Particulars: humans and mammals; cited from earlier work.

Results on two compounds are retold here after publication PMC6747225 (International Journal of Environmental Research and Public …, 2019).

`CN[C@H]1CC[C@@H](c2ccc(Cl)c(Cl)c2)c2ccccc21` [SER, sertraline]: the SOD activity entry in data set [1] is given as “not significantly changed”.
Turning to `CN(C)CCOC(c1ccccc1)c1ccccc1` [DPH, diphenhydramine], the “Inhibition of the CY2D6 enzyme” value in data set [2] is “strong inhibitor”.
